Calls of active or inactive are those of the source. The rule behind the calls is not given here.

The assay deals with Peptidyl-prolyl cis-trans isomerase FKBP1A (Homo sapiens) (UniProt P62942). The experiment in a line: FKBP12 binders, biophysical, NMR detection (AID 608). The following applies: NMR binding, purified FKBP12.
Chain of Peptidyl-prolyl cis-trans isomerase FKBP1A (Homo sapiens) (P62942 whole entry, looked up): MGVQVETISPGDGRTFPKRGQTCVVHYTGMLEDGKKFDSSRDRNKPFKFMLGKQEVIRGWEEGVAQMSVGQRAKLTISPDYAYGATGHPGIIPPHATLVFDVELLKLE
`Cc1ccc(C)n1/N=C1\NC(=O)CS1`: the Kd was > 4 mM (inactive). The value for `Cc1cc(C)n2nc(NCc3ccccc3)nc2n1` was > 4 mM (inactive); that for `COCc1cc(=O)oc2cc(O)c(Cl)cc12` was > 4 mM (inactive). On to `C[C@@H]1CCC2[C@](C)(CO)[C@@H](O)CC[C@]2(C)[C@@]12CC[C@@](CO)(CCO)O2` (stereo partly specified), for which the Kd is > 4 mM (inactive). The result for `Nc1ccc2sccc2c1` reads > 4 mM (inactive); that for `Cc1nnc(-n2cnc3ccccc32)c2ccccc12`, > 4 mM (inactive); that for `O=C(NCc1ccccn1)c1ccccc1Cl`, > 4 mM (inactive). Regarding `CS(=O)(=O)c1ccc2nc(N)sc2c1`, the Kd was > 4 mM (inactive).

For `Oc1cc(O)cc(/C=C/c2ccccc2)c1`, the Kd is > 4 mM (inactive).

As to `O=C(Oc1ccc2c(c1)CCC2)N1CCOCC1`, the Kd is > 4 mM (inactive).

In the case of `O=C(O)c1scc2c1CCCC2`, the Kd is > 4 mM (inactive). Consider `O=C(Nc1c[nH]c(=O)[nH]c1=O)c1ccccc1F`, for which the Kd is > 4 mM (inactive).

As for `Cc1cc[n+](-c2nc([O-])sc2C=O)cc1`, the Kd is > 4 mM (inactive). The value for `Cc1cccc(C)c1NC(=O)CN1CCOCC1` was > 4 mM (inactive); that for `CC(=O)Nc1ccc(NC(C)=O)cc1` was > 4 mM (inactive); that for `CC(=O)O[C@@H]1C=C[C@@]2(C)C(C[C@@H](OC(C)=O)[C@@]3(C)C4=CC(=O)O[C@@H](c5ccoc5)[C@]4(C)CCC23)C1(C)C` (stereo partly specified) was > 4 mM (inactive). For `Cc1nn(C)c(Cl)c1C(O)c1c(C)nn(C)c1Cl`, the Kd is > 4 mM (inactive). With `C=C1C2CC[C@H]3[C@]4(C)C[C@H](OC5OC(CO)C(OS(=O)(=O)O)C(OS(=O)(=O)O)C5OC(=O)CC(C)C)C[C@@H](C(=O)O)[C@H]4CC[C@]3(C2)[C@H]1O` (stereo partly specified), the Kd was > 4 mM (inactive).

As for `Cc1ccc(-c2cc(C(=O)N3CCCC3)no2)cc1`, the Kd is > 4 mM (inactive). In the case of `Nc1cc(=O)[nH]c(=S)n1CCc1ccccc1`, the Kd was > 4 mM (inactive). With `Cc1ccnc(NS(=O)(=O)c2cccs2)c1`, the Kd was > 4 mM (inactive).

For `Cc1cc(C)n2nc(C(=O)Nc3cccnc3)nc2n1`, the Kd is > 4 mM (inactive).

Consider `Cn1c(NCC(=O)O)nc2c1c(=O)[nH]c(=O)n2C`, for which the Kd was > 4 mM (inactive). In the case of `CC(C)c1ccc2c(c1O)CC[C@H]1C3=C(CC[C@]21C)C(=O)OC3`, the Kd is > 4 mM (inactive). On to `O=S(=O)(NCc1ccco1)N1CCOCC1`, for which the Kd is > 4 mM (inactive). The value for `Nc1cc(=O)[nH]c(=O)n1-c1ccccc1` was > 4 mM (inactive). As for `Cc1ccc(S(=O)(=O)/N=C2\NC(=O)CS2)cc1`, the Kd is > 4 mM (inactive). The value for `NCc1csc2ccccc12` was > 4 mM (inactive); that for `O=C(NCO)c1ccccc1Cl` was > 4 mM (inactive); that for `O=C1C2C3C=CC(C3)C2C(=O)N1CCO` (stereo unspecified) was > 4 mM (inactive). For the compound `CC(C)CCCC(C)[C@H]1CCC2C3CC=C4CC(=O)CC[C@]4(C)C3CC[C@@]21C` (stereo partly specified), the Kd was > 4 mM (inactive). The value for `Nc1ncnc2nc(SCCN3CCCCC3)[nH]c12` was > 4 mM (inactive).

In the case of `Nc1cccc2c(=O)[nH][nH]c(=O)c12`, the Kd is > 4 mM (inactive). The result for `COc1cc2c(cc1OC)[C@@H]1C(=O)c3ccc4c(c3O[C@@H]1CO2)C=CC(C)(C)O4` reads > 4 mM (inactive); that for `CC1(C)C2CC[C@]3(C)C(C(=O)C=C4[C@H]5C[C@@](C)(C(=O)O)CC[C@]5(C)CC[C@]43C)[C@@]2(C)CC[C@@H]1O` (stereo partly specified), > 4 mM (inactive). On to `N=c1c2c3c(sc2ncn1N)CCCC3`, for which the Kd was > 4 mM (inactive). Take `NC(=O)c1cccc2c(=O)oc3ccccc3c12`: the Kd was > 4 mM (inactive). In the case of `Cc1cc(C(=O)N2CCC3(CC2)OCCO3)cs1`, the Kd is > 4 mM (inactive). The value for `Cc1n[nH]c(C)c1N` was > 4 mM (inactive); that for `CN1CCC(N2CCN(C)CC2)CC1` was > 4 mM (inactive). The value for `COc1cccc(NC(=O)c2cccs2)c1` was 0.44 mM; that for `COC(=O)c1c(OC)cc2c(c1C)Oc1c(Cl)c(OC(C)=O)c(Cl)c(C)c1C(=O)O2` was > 4 mM (inactive); that for `O=C1CC[C@]23/C=C/C(=O)NCCCCNCCCNC(=O)/C=C/c4ccc(c2c4)O[C@@H]3C1` was > 4 mM (inactive). The value for `Cc1nn(-c2ccccc2C(=O)O)c(=O)c2ccccc12` was > 4 mM (inactive).

Turning to `N/C(=N/O)C1COc2ccccc2O1` (stereo unspecified), the Kd is > 4 mM (inactive). The value for `COc1ccc(NC(=O)CSc2nccc(=O)[nH]2)cc1` was > 4 mM (inactive). The result for `Cc1ccc(C(=O)Nn2cnnc2)s1` reads > 4 mM (inactive); that for `CC1CC[C@]2(NC1)O[C@H]1CC3C4CC[C@H]5C[C@@H](O)CC[C@]5(C)C4CC[C@]3(C)[C@H]1[C@@H]2C` (stereo partly specified), > 4 mM (inactive); that for `O=C(O)CCc1ccc2c(c1)OCO2`, > 4 mM (inactive). The result for `C/C=C(\C)c1nnc(NC(=O)C(C)C)s1` reads > 4 mM (inactive); that for `COc1ccccc1NC(=O)C1CCCCC1`, > 4 mM (inactive).

Regarding `C/C=C/COc1nc2c(c(=O)n(C)c(=O)n2C)n1C`, the Kd is > 4 mM (inactive). With `O=C1N=c2ccccc2=C1c1sc(=S)[nH]c1O`, the Kd is > 4 mM (inactive). The result for `CC(C)c1ccc(OCC(=O)N2CCOCC2)cc1` reads 0.394 mM; that for `C[C@]12CC(=O)C3C(CC[C@@H]4C[C@H](O)CC[C@]34C)C1CC[C@]2(O)C(=O)CO` (stereo partly specified), > 4 mM (inactive); that for `CC(=O)NCCc1cc2ccc(C)c(C)c2[nH]c1=O`, > 4 mM (inactive). Consider `O=c1nc(N2CCCCC2)nc2n1CCO2`, for which the Kd was > 4 mM (inactive). Consider `CC(C)(O)CC[C@@H](O)[C@](C)(O)C1CC[C@@]2(O)C3=CC(=O)C4C[C@@H](O)[C@@H](O)C[C@]4(C)C3CC[C@]12C` (stereo partly specified), for which the Kd was > 4 mM (inactive). The value for `Cc1ccc(-c2nn(C)c(=O)c3ccccc23)cc1CO` was > 4 mM (inactive); that for `O=C(Nc1cccnc1)c1c(F)cccc1F` was > 4 mM (inactive); that for `Cc1noc(C)c1C(=O)Nc1ccc2c(c1)CCC2` was > 4 mM (inactive). In the case of `CN1CCN(C(=O)c2ccco2)CC1`, the Kd is > 4 mM (inactive). The value for `CN1CCN(CC(=O)NC2CCCCC2)CC1` was > 4 mM (inactive); that for `CCC(C)C(=O)c1c(O)c(C)c2oc3c(C)c(O)c(C(=O)C(C)CC)c(O)c3c2c1O` (stereo unspecified) was > 4 mM (inactive). The value for `C[C@H]1O[C@@H](O[C@H]2[C@@H](O)C[C@H](O[C@H]3[C@@H](O)C[C@H](O[C@H]4CC[C@]5(C)C6C[C@@H](O)[C@]7(C)[C@@H](C8=CC(=O)OC8)CC[C@]7(O)C6CC[C@@H]5C4)O[C@@H]3C)O[C@@H]2C)C[C@H](O)[C@@H]1O` (stereo partly specified) was > 4 mM (inactive); that for `COc1ccc(-c2cc(=O)c3c(O)cc(O[C@@H]4O[C@H](CO[C@H]5O[C@H](C)[C@@H](O)[C@H](O)[C@@H]5O)[C@@H](O)[C@H](O)[C@H]4O)cc3o2)cc1O` was > 4 mM (inactive).

For the origin of these results see PubChem BioAssay AID608 (Sanford-Burnham Center for Chemical Genomics, 2007).
